Results on 3 compounds are retold here after patent US7030135B2, “Inhibitors of 11-β-hydroxy steroid dehydrogenase type 1” (Biovitrum AB, priority 2000, dated 2006).

One assay relates to bone nodule formation. The conditions noted are these: cited from earlier work.
The target of assay [1] is T1, human 11-β-hydroxysteroid dehydrogenase type-1 enzyme (11-β-HSD1) (Homo sapiens, UniProt P28845).
T1 construct: made in house; host or cells: Pichia pastoris
The assay is described as follows: 11-β-HSD1 enzyme scintillation proximity assay. The class given is biochemical. The conditions noted are these: human 11-β-HSD1 expressed in Pichia pastoris; Ki calculated from IC50 (Cheng-Prusoff). The source says: [1,2(n)-^3H]-cortisone was purchased from Amersham Pharmacia Biotech. Anti-cortisol monoclonal mouse antibody, clone 6D6.7 was obtained from Immunotech and Scintillation proximity assay (SPA) beads coated with monoclonal antimouse antibodies were from Amersham Pharmacia Biotech. NADPH, tetrasodium salt was from Calbiochem and glucose-6-phosphate (G-6-P) was supplied by Sigma The human 11-β-hydroxysteroid dehydrogenase type-1 enzyme (11-β-HSD1) was expressed in Pichia pastoris. 18-β-glycyrhetinic acid (GA) was obtained from Sigma. The serial dilutions of the compounds were performed on a Tecan Genesis RSP 150. […]
The multiplication of plates was done on a WallacQuadra. The amount of the product [^3H]-cortisol, bound to the beads was determined in a Packard, Top Count microplate liquid scintillation counter. […]
The plates were covered with plastic film and incubated on a shaker for 30 minutes, at room temperature, before counting. The amount of [^3H]-cortisol, bound to the beads was determined in a microplate liquid scintillation counter.
The calculation of the Ki values for the inhibitors was performed by use of Activity Base. The Ki value is calculated from IC50 and the Km value is calculated using the Cheng Prushoff equation (with reversible inhibition that follows the Michaelis-Menten equation): […] [Cheng, Y. C.; Prushoff, W. H. Biochem. Pharmacol. 1973, 22, 3099–3108]. […]

T1 sequence (P28845 whole entry): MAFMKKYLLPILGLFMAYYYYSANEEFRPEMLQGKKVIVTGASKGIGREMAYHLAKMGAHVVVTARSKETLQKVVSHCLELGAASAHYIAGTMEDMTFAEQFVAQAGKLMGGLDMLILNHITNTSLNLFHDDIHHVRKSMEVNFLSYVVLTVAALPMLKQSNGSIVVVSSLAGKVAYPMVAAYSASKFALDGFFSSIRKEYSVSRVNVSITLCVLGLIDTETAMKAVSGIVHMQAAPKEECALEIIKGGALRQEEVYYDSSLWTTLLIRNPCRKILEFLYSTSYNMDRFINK

Turning to `CC1(C)[C@@H](OC(=O)CCC(=O)O)CC[C@]2(C)[C@H]3C(=O)C=C4[C@@H]5C[C@@](C)(C(=O)O)CC[C@]5(C)CC[C@@]4(C)[C@]3(C)CC[C@@H]12` [carbenoxolone], the “negative glucocorticoid effect on bone nodule formation” value with bone nodule formation is “could be blocked”.

The term Ki denotes a dissociation constant, usually derived from enzyme kinetics or from competition with a known ligand. With `Cc1cc(Cl)cc(Cl)c1S(=O)(=O)Nc1nc2c(s1)C(=O)CC(C)(C)C2` [Example 8, 2,4-Dichloro-N-(5,5-dimethyl-7-oxo-4,5,6,7-tetrahydro-1,3-benzothiazol-2-yl)-6-methylbenzenesulfonamide.], the inhibitory constant (Ki) in assay [1] is 28 nM.

Turning to `Cc1cc(Br)ccc1S(=O)(=O)Nc1nc2c(s1)C(=O)CC(C)C2` (stereo not drawn) [Example 16, 4-Bromo-2methyl-N-(5methyl-7-oxo-4,5,6,7-tetrahydro-1,3-benzothiazol-2-yl)benzenesulfonamide], the Ki in assay [1] is 227 nM.
